Values quoted from earlier work in patent publication US20230082870A1, “COMPOSITION FOR CALCIUM SUPPLEMENTATION” (ABIOGEN PHARMA S.P.A., priority 2017, published 2023).

Details: state of the art

In the case of `O=C([O-])CC(O)(CC(=O)[O-])C(=O)[O-].O=C([O-])CC(O)(CC(=O)[O-])C(=O)[O-].[Ca+2].[Ca+2].[Ca+2]` [calcium citrate], the “Bioavailability, higher than that of calcium carbonate” value is listed as 20-30%.
